For data set [1], the system named is rat hippocampal brain slices. In words: Reversal of mGluR2-agonism (LY-354740-depressed fEPSP) in hippocampal brain slices. It counts as cell-based. From the text:
7) Reversal of mGluR2-Agonism in Hippocampal Brain Slices Introduction
Electrophysiology recordings of field excitatory postsynaptic potentials (fEPSPs) in acute hippocampal brain slices represent a model for testing synaptic transmission and plasticity. The effect of Co. No. 1 on synaptic transmission and plasticity in dentate gyms synapses was investigated using this model.
Recordings of fEPSPs were made from hippocampal brain slices using a multi-electrode array (MEA) biochip, and 3-dimensional-(3D) tip electrodes, according to a standard protocol. These recordings were used to monitor glutamate-mediated synaptic transmission (FIG. 4).

The test system of the next data set is Wiga rats. In words: Reserpine interaction test in rats. The class given is in vivo, rat. Particulars: Rattus norvegicus, po; Time 60; reserpine 10 mg/kg SC; Wiga rats; read-out: ED50, reversal of reserpine-induced ptosis. Here is the method:
4) Reserpine Interaction Test in Rats
It was investigated to what extent the mydriatic action of test compounds was sufficient to counteract the miosis induced by the monoamines-depleting agent reserpine (10 mg/kg; SC) in Wiga rats.
The effects are illustrated in FIG. 3. […] The reference mGlu2 NAMs RO-4995819 (40 mg/kg, p.o.), RO-4491533 (40 mg/kg, p.o.; 10 mg/kg, s.c.) and [CAS 579473-69-1]

For a further data set, the system named is rats. In words: Reversal of the effect of the mGluR2 PAM JNJ-42153605 on scopolamine-induced hyperlocomotion. The class given is in vivo. Particulars: Rattus norvegicus, 1 h, Route PO, test compound 60 min before recording, criterion total distance >1500 cm. Here is the method:
2) Reversal of the Effect of the mGluR2 PAM JNJ-42153605 on Scopolamine-Induced Hyperlocomotion Apparatus
Motor activity was measured in microprocessor-based motor activity arenas (closed gray PVC cylinders with a height of 39 cm and a diameter of 31 cm). Each arena was placed on an infrared LED (8×8 LEDs) lit box (white PVC squared box; 40×40 cm^2; height 12.5 cm. An infrared-sensitive tube camera and a white light source were mounted to the ceiling above the observation chamber to track the animal. The total distance traveled (cm) was recorded and analyzed using the Noldus Ethovision XT Video Tracking System (Version 7.0.418; Noldus, Wageningen, The Netherlands). The intensity of the light within the activity cages (measured in the centre at the level of the floor) ranged between 4 and 8 LUX.
The rats were pretreated with test compound or vehicle at 60 min before the start of the activity recordings and placed into individual cages. The rats were challenged with JNJ-42153605 (3-(cyclopropylmethyl)-7-(4-phenylpiperidin-1-yl)-8-(trifluoromethyl)[1,2,4]triazolo[4,3-a]pyridine; WO2010/130424; Cid et al. J. Med. Chem. 2012, 55, 8770-8789) (20 mg/kg, i.v.) 30 min before the start of the activity recording combined with scopolamine (0.16 mg/kg, i.v.) just before the start of the activity measurements Immediately after the injection of scopolamine, the rats were placed into the activity monitors and total distance travelled over the first 30 min was measured.
Animals receiving the combination of JNJ-42153605 and scopolamine (n=433) almost always travelled a distance of less than 1500 cm (<1500 cm) (only 2.5% of the control rats travelled a distance of more than 1500 cm (>1500 cm)). On the other hand, animals challenged with scopolamine alone (n=215) always travelled a total distance of more than 1500 cm (>1500 cm) and almost always (in 95.8% of the rats) a distance of more than 4400 cm (>4400 cm). […] For reversal of the inhibitory effect of JNJ-42153605 on the scopolamine-induced hyperlocomotion, two all-or-none criteria were adopted: (1) reversal: total distance >1500 cm; (2) normalization: total distance >4400 cm.

In a further data set the test system is Male Wiga Wistar rats. In words: Reversal of LY-404039-induced decrease of palpebral opening in apomorphine-challenged rats. The class given is in vivo. Particulars: Rattus norvegicus, Route PO; reversal of LY-404039-induced decrease of palpebral opening (cumulative score >26) in apomorphine challenged rats. Here is the method:
6) Reversal of LY-404039-Induced Decrease of Palpebral Opening in Apomorphine-Challenged Rats.
Male Wiga Wistar rats (Crl:WI; Charles River Germany; 220±40 g) were housed under standard laboratory conditions (21±2° C.; 50-65% relative humidity; light-dark cycle set at 12 h; lights on at 6.00 h) and fasted overnight prior to the start of the experiments (tap water remained available ad libitum). During the test period, they were housed in individual cages. The local Ethical Committee approved all studies in compliance with the Declaration of Helsinki. Palpebral opening was scored every 5 min over the first hour after injection of apomorphine (1.0 mg/kg, i.v.) in animals either pretreated or not pretreated with LY-404039 (2.5 mg/kg, s.c.) at 1 h prior to the apomorphine injection. The animals were also pretreated with test compound or solvent at a predefined interval before apomorphine challenge. The score system was: (5) exophthalmos, (4) wide open, (3) open for three-quarters, (2) half open, (1) open for one-quarter, (0) closed. The scores for palpebral opening were cumulated over the 60-min observation period. A cumulative palpebral opening score >26 was selected for drug-induced reversal of the LY-404039-induced decrease of palpebral opening (occurrence in 3.2% of control animals pretreated with LY-404039 (n=154) versus in 99.5% of control rats not pretreated with LY-404039 (n=6335)).
In animals receiving apomorphine alone the median palpebral opening is 43 whereas in animals receiving apomorphine and LY-404039, the median palpebral opening is 17.

The target in a further data set is T1, human mGlu2 receptor (Homo sapiens, UniProt Q14416).
T1 construct: expressed in transfected cells; host or cells: CHO cells (membrane preparation)
T1 sequence (Q14416 19-872): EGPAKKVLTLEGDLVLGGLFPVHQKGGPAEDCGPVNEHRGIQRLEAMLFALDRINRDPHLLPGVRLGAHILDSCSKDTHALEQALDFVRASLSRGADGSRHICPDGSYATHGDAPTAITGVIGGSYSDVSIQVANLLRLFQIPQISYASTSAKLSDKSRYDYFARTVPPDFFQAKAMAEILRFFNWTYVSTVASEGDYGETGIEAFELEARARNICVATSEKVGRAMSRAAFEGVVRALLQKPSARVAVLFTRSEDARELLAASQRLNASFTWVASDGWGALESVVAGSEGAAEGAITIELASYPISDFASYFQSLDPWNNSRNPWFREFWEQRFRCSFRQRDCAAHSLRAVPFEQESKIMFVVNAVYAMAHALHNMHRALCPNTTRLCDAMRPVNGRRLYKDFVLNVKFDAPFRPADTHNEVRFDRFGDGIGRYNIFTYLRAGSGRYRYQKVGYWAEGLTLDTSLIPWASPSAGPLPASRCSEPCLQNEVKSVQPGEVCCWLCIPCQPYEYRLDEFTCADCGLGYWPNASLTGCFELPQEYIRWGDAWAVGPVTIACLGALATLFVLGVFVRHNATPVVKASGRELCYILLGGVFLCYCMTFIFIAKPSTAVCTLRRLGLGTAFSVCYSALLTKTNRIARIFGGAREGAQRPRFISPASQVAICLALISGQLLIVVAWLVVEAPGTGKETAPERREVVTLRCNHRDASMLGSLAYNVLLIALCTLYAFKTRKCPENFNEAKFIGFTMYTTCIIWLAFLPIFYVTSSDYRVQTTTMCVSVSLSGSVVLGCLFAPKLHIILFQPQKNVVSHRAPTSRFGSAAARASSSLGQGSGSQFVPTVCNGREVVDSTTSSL
In words: [35S]GTPγS binding assay (mGluR2 negative allosteric modulation). It counts as biochemical. Particulars: for IC50: membranes from CHO cells transfected with human mGlu2 receptor, glutamate 60 μM, pIC50 = −log IC50 (M), read-out: GTPγS - hmGluR2 anGT pIC50 (converted); for Emax: relative maximal effect: maximal % inhibition relative to the control glutamate response, read-out: GTPγS - hmGluR2 anGT Emax. The essentials:
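Membranes from butyrate-stimulated CHO cells expressing human mGlu2; 7 μg protein in HEPES pH 7.4, 100 mM NaCl, 3 mM MgCl2, 10 μM GDP, 10 μg/ml saponin. Compound tested against EC80-equivalent glutamate; 0.1 nM [35S]GTPγS, 30 min, 30 °C; filtration, scintillation counting. Data as % of control glutamate response.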
(In general: Binding of GTPγS marks nucleotide exchange on a G protein.)

Nine compounds from US10106542B2, “Substituted 6,7-dihydropyrazolo[1,5-a]pyrazines as negative allosteric modulators of mGluR2 receptors” (Janssen Pharmaceutica NV, priority 2013, dated 2018) can be followed below.

A value given as a limit tells only on which side of the number the result lay.

As for `N[C@@]1(C(=O)O)CC[C@H]2[C@H](C(=O)O)[C@H]21` [LY-354740, reference compound], the “paired-pulse ratio (PPR)” value in data set [1] (1 μM LY-354740) was “increase of the paired-pulse ratio”. The “depression of fEPSP” value in data set [1] (1 μM, within 15 min of application, dentate gyrus) turned out to be 50%.
Usually ED50 stands for the dose at which the effect has come halfway, by size or by number of responders. Take `C[C@H]1CN(c2ccc(C(F)(F)F)cc2)C(=O)c2c(-c3ccncc3)cnn21` [compound 2, (7S)-7-Methyl-3-pyridin-4-yl-5-[4-(trifluoromethyl)phenyl]-6,7-dihydropyrazolo [1,5-a]pyrazin-4(5H)-one]: the ED50 in the data set with Wiga rats was 0.32 mg/kg; in the data set on rats, 1.26 mg/kg; in the data set on Male Wiga Wistar rats it was 0.5 mg/kg.
Broadly, the Emax is the maximal effect, on the per cent scale that the assay sets. For `CCOc1cc(N2C[C@H](C)n3ncc(-c4ccnc(C)c4)c3C2=O)ccc1C(F)(F)F` [compound 8], the ED50 in the data set with rats was 5 mg/kg. For the same compound, in the data set on Male Wiga Wistar rats, the ED50 was found to be 5 mg/kg. Besides, at human mGlu2 receptor, the IC50 is 5.89e-09 M and the Emax was 105%.
As to `Cc1cc(-c2cnn3c2C(=O)N(c2ccc(Cl)cc2)C[C@@H]3C)ccn1` [compound 15], the ED50 with rats came to 1.26 mg/kg; in the data set with Male Wiga Wistar rats, 11.2 mg/kg. For the same compound, the IC50 on human mGlu2 receptor is 2.63e-08 M. Moreover, the Emax on human mGlu2 receptor was found to be 103%.
As for `CCOc1cc(N2C[C@@H](C)n3ncc(-c4ccnc(C)c4)c3C2=O)ccc1C(F)(F)F` [compound 31], the ED50 in the data set on Wiga rats is 0.79 mg/kg; in the data set with Male Wiga Wistar rats it was no less than 10 mg/kg. Moreover, the IC50 at human mGlu2 receptor was 4.37e-07 M. Besides, the Emax at human mGlu2 receptor came out at 107%.
The like results for `CCOc1cc(N2CCn3ncc(-c4ccnc(C)c4)c3C2=O)ccc1C(F)(F)F` [compound 33] were, in that order, 0.5 mg/kg, greater than 2.5 mg/kg, 5.75e-07 M and 99%.
The melting point is the temperature of the solid-liquid transition. In turn, `CCNc1cc(-c2cnn3c2C(=O)N(c2ccc(C(F)(F)F)cc2)C[C@@H]3C)ccn1` [compound 44, (7S)-3-[2-(Ethylamino)-4-pyridyl]-7-methyl-5-[4-(trifluoromethyl)phenyl]-6,7-dihydropyrazolo[1,5-a]pyrazin-4-one] yielded a melting point greater than 300 °C. For the same compound, the ED50 with rats is no less than 2.5 mg/kg. Besides, in the data set with Male Wiga Wistar rats, the ED50 turned out to be 0.5 mg/kg. Further, at human mGlu2 receptor, the IC50 was 6.17e-09 M and the Emax was found to be 105%.
For `CCc1cc(-c2cnn3c2C(=O)N(c2ccc(C(F)(F)F)cc2)C[C@@H]3C)ccn1` [compound 46, (7S)-3-(2-Ethyl-4-pyridyl)-7-methyl-5-[4-(trifluoromethyl)phenyl]-6,7-dihydropyrazolo[1,5-a]pyrazin-4-one], in that order: 124.6 °C, no less than 2.5 mg/kg, 0.32 mg/kg, 6.31e-09 M and 105%.
On to `CNc1cc(-c2cnn3c2C(=O)N(c2ccc(C(F)(F)F)cc2)C[C@@H]3C)ccn1` [compound 147, (7S)-7-Methyl-3-[2-(methylamino)-4-pyridyl]-5-[4-(trifluoromethyl)phenyl]-6,7-dihydropyrazolo[1,5-a]pyrazin-4-one], for which the ED50 is 0.5 mg/kg in the data set with rats and 1.26 mg/kg with Male Wiga Wistar rats. The IC50 on human mGlu2 receptor is 5.75e-09 M. For the same compound, the Emax at human mGlu2 receptor turned out to be 106%.
